This note sets out measurements from patent US10428044B2, “3-amino-1,5,6,7-tetrahydro-4H-indol-4-ones” (Bayer Pharma Aktiengesellschaft, priority 2014, dated 2019).

One may read the IC50 as the concentration at which inhibition is half-maximal.

Chain of (recombinant) catalytic domain of human Bub1 (amino acids 704-1085) (O43683 704-1085): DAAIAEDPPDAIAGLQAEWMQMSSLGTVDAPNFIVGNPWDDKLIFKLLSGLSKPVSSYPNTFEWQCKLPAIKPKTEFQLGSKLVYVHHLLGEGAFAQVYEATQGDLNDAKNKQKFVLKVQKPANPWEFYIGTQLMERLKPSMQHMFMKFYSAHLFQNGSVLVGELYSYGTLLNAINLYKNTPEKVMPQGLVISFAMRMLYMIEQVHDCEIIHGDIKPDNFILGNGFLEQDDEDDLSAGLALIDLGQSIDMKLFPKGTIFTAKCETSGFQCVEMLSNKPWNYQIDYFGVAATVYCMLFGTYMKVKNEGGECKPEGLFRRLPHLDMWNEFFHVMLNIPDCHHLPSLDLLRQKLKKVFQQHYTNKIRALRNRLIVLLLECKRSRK

This test has as its target (recombinant) catalytic domain of human Bub1 (amino acids 704-1085) (Homo sapiens (Human), UniProt O43683). In words: Bub1 kinase assay (TR-FRET). In kind it is biochemical. The settings on record: ATP 10 μM final, peptide substrate 1 μM final, 60 min at 22° C., read-out: Biological Assay: Bub1 kinase assay median IC50. The gist of the method: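 Compounds were serially diluted 1:3.4 from 2 mM DMSO stocks and incubated with the enzyme reaction for 60 min at 22° C. The reaction was stopped with EDTA, and biotinylated peptide phosphorylation was read by TR-FRET using Eu anti-mouse IgG, anti-phosphoserine antibody and streptavidin-XL665. IC50 was fitted by 4-parameter logistic to inhibition normalized to no-inhibitor and no-enzyme controls.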
A general note: Time-resolved FRET reads energy transfer from a long-lived donor to a nearby acceptor.
Regarding `CSCCNC(=O)Nc1cc(-c2[nH]c3c(c2Nc2ccccc2)C(=O)CCC3)ccn1` [Example 389, 1-[2-(methylsulfanyl)ethyl]-3-{4-[4-oxo-3-(phenylamino)-4,5,6,7-tetrahydro-1H-indol-2-yl]pyridin-2-yl}urea], the IC50 is 38.9 nM.

Turning to `CC1(C)CC(=O)c2c([nH]c(-c3ccnc(NC(=O)[C@@H]4C[C@@H]4F)c3)c2Nc2ccccc2)C1` [Example 258], the 50% inhibitory concentration (IC50) amounted to 6.49 nM.

Take `CC1(C)CC(=O)c2c([nH]c(-c3ccncc3F)c2Nc2ccccc2)C1` [Example 30, 2-(3-fluoropyridin-4-yl)-6,6-dimethyl-3-(phenylamino)-1,5,6,7-tetrahydro-4H-indol-4-one]: the IC50 amounted to 5.69 nM.

On to `CN1CCCC1C(=O)Nc1cc(-c2[nH]c3c(c2Nc2ccccc2)C(=O)CCC3)ccn1` (stereo not shown) [Example 309, 1-methyl-N-{4-[4-oxo-3-(phenylamino)-4,5,6,7-tetrahydro-1H-indol-2-yl]pyridin-2-yl}-prolinamide], for which the IC50 worked out at 238 nM.

As for `CCOCC(=O)Nc1cc(-c2[nH]c3c(c2Nc2ccccc2)C(=O)CCC3)ccn1` [Example 334, 2-ethoxy-N-{4-[4-oxo-3-(phenylamino)-4,5,6,7-tetrahydro-1H-indol-2-yl]pyridin-2-yl}acetamide], the 50% inhibitory concentration (IC50) is 9.36 nM.

Consider `CC1(C)CC(=O)c2c([nH]c(-c3ccncc3OC(C)(C)C)c2Nc2ccccc2)C1` [Example 407, 2-(3-tert-butoxypyridin-4-yl)-6,6-dimethyl-3-(phenylamino)-1,5,6,7-tetrahydro-4H-indol-4-one], for which the IC50 is 600 nM.

As for `CC1(C)CC(=O)c2c([nH]c(-c3ccnc(NC(=O)c4cc(F)cc(F)c4)c3)c2Nc2ccccc2)C1` [Example 467, N-{4-[6,6-dimethyl-4-oxo-3-(phenylamino)-4,5,6,7-tetrahydro-1H-indol-2-yl]pyridin-2-yl}-3,5-difluorobenzamide], the IC50 worked out at 23.3 nM.

Regarding `CC(C)(CO)C(=O)Nc1cc(-c2[nH]c3c(c2Nc2ccccc2)C(=O)CCC3)ccn1` [Example 243, 3-hydroxy-2,2-dimethyl-N-{4-[4-oxo-3-(phenylamino)-4,5,6,7-tetrahydro-1H-indol-2-yl]pyridin-2-yl}propanamide], the IC50 was determined as 255 nM.

As for `NC(=O)CCn1c2c(c(Nc3ccccc3)c1-c1ccncc1)C(=O)CCC2` [Example 174, 3-[4-oxo-3-(phenylamino)-2-(pyridin-4-yl)-4,5,6,7-tetrahydro-1H-indol-1-yl]propanamide], the 50% inhibitory concentration (IC50) was 220 nM.

For the compound `COCCNC(=O)Nc1cc(-c2[nH]c3c(c2Nc2ccccc2)C(=O)CCC3)ccn1` [Example 383, 1-(2-methoxyethyl)-3-{4-[4-oxo-3-(phenylamino)-4,5,6,7-tetrahydro-1H-indol-2-yl]pyridin-2-yl}urea], the IC50 worked out at 69.1 nM.

As to `O=C1CCCc2[nH]c(-c3ccnc(NC(=S)NCC(F)(F)F)c3)c(Nc3ccccc3)c21` [Example 394, 1-{4-[4-oxo-3-(phenylamino)-4,5,6,7-tetrahydro-1H-indol-2-yl]pyridin-2-yl}-3-(2,2,2-trifluoroethyl)thiourea], the concentration for half-maximal inhibition (IC50) was found to be 1150 nM.

Consider `O=C(Nc1cc(-c2[nH]c3c(c2Nc2ccccc2)C(=O)CCC3)ccn1)c1cnn(Cc2ccccc2)c1` [Example 449, 1-benzyl-N-{4-[4-oxo-3-(phenylamino)-4,5,6,7-tetrahydro-1H-indol-2-yl]pyridin-2-yl}-1H-pyrazole-4-carboxamide], for which the IC50 came to 4.38 nM.

In the case of `O=C1CCCc2[nH]c(-c3cc(Cl)nc(Cl)c3)c(Nc3ccccc3)c21` [Example 217, 2-(2,6-dichloropyridin-4-yl)-3-(phenylamino)-1,5,6,7-tetrahydro-4H-indol-4-one], the IC50 is greater than 20000 nM.

For `CC1(C)CC(=O)c2c([nH]c(-c3ccncc3)c2Nc2cnc3ccccc3c2)C1` [Example 66, 6,6-dimethyl-2-(pyridin-4-yl)-3-(quinolin-3-ylamino)-1,5,6,7-tetrahydro-4H-indol-4-one], the IC50 was 2260 nM.

Consider `CC1(C)CC(=O)c2c([nH]c(-c3ccnc(Cl)c3F)c2Nc2ccccc2)C1` [Example 219, 2-(2-chloro-3-fluoropyridin-4-yl)-6,6-dimethyl-3-(phenylamino)-1,5,6,7-tetrahydro-4H-indol-4-one], for which the IC50 amounted to 12.2 nM.

As for `O=C1CC2(CCC2)Cc2[nH]c(-c3ccncc3)c(Nc3ccccc3)c21` [Example 13, 3′-(phenylamino)-2′-(pyridin-4-yl)-1′,7′-dihydrospiro[cyclobutane-1,6′-indol]-4′(5′H)-one], the IC50 came to 6.55 nM.

For the compound `Cc1cc(COCC(=O)Nc2cc(-c3[nH]c4c(c3Nc3ccccc3)C(=O)CCC4)ccn2)on1` [Example 350, 2-[(3-methyl-1,2-oxazol-5-yl)methoxy]-N-{4-[4-oxo-3-(phenylamino)-4,5,6,7-tetrahydro-1H-indol-2-yl]pyridin-2-yl}acetamide], the half-inhibitory concentration (IC50) amounted to 6.53 nM.

Turning to `CC1(C)CC(=O)c2c([nH]c(-c3ccnc(Nc4cnn(Cc5ccccc5)c4)c3)c2Nc2ccccc2)C1` [Example 204, 2-{2-[(1-benzyl-1H-pyrazol-4-yl)amino]pyridin-4-yl}-6,6-dimethyl-3-(phenylamino)-1,5,6,7-tetrahydro-4H-indol-4-one], the IC50 turned out to be 42.6 nM.

On to `Cc1ccc(F)c(Nc2c(-c3ccncc3)[nH]c3c2C(=O)CC(C)(C)C3)c1` [Example 82, 3-[(2-fluoro-5-methylphenyl)amino]-6,6-dimethyl-2-(pyridin-4-yl)-1,5,6,7-tetrahydro-4H-indol-4-one], for which the IC50 came to 510 nM.

As to `CC1(C)CC(=O)c2c([nH]c(-c3ccncc3)c2Nc2ccc(C#N)cc2)C1` [Example 433, 4-{[6,6-dimethyl-4-oxo-2-(pyridin-4-yl)-4,5,6,7-tetrahydro-1H-indol-3-yl]amino}benzonitrile], the IC50 is 2930 nM.

For the compound `CC1(C)CC(=O)c2c([nH]c(-c3ccncc3)c2Nc2ccccc2CCO)C1` [Example 427, 3-{[2-(2-hydroxyethyl)phenyl]amino}-6,6-dimethyl-2-(pyridin-4-yl)-1,5,6,7-tetrahydro-4H-indol-4-one], the IC50 is 8.4 nM.

Regarding `O=C1CCCc2[nH]c(-c3ccncc3)c(Nc3cccc(F)c3)c21` [Example 41, 3-[(3-fluorophenyl)amino]-2-(pyridin-4-yl)-1,5,6,7-tetrahydro-4H-indol-4-one], the IC50 was found to be 11.1 nM.

For the compound `COc1cc(C(=O)Nc2cc(-c3[nH]c4c(c3Nc3ccccc3)C(=O)CCC4)ccn2)ccc1F` [Example 453, 4-fluoro-3-methoxy-N-{4-[4-oxo-3-(phenylamino)-4,5,6,7-tetrahydro-1H-indol-2-yl]pyridin-2-yl}benzamide], the IC50 amounted to 10 nM.

In the case of `Cc1cc(-c2[nH]c3c(c2Nc2ccccc2)C(=O)CC(C)(C)C3)cc(C)n1` [Example 209, 2-(2,6-dimethylpyridin-4-yl)-6,6-dimethyl-3-(phenylamino)-1,5,6,7-tetrahydro-4H-indol-4-one], the IC50 was found to be 3120 nM.

`CC1(C)CC(=O)c2c([nH]c(-c3ccncc3O)c2Nc2ccccc2)C1` [Example 464, 3-anilino-2-(3-hydroxypyridin-4-yl)-6,6-dimethyl-1,5,6,7-tetrahydro-4H-indol-4-one]: the IC50 worked out at 58.9 nM.

For the compound `CC(C)[C@H]1CC(=O)c2c([nH]c(-c3ccnc(N)c3)c2Nc2ccc(F)cc2)C1` (stereo in doubt) [Example 167, 2-(2-aminopyridin-4-yl)-3-[(4-fluorophenyl)amino]-6-(propan-2-yl)-1,5,6,7-tetrahydro-4H-indol-4-one], the half-inhibitory concentration (IC50) is 53.1 nM.

`COc1cc(-c2[nH]c3c(c2Nc2ccccc2)C(=O)CCC3)ccn1` [Example 150, 2-(2-methoxypyridin-4-yl)-3-(phenylamino)-1,5,6,7-tetrahydro-4H-indol-4-one]: the half-maximal inhibitory concentration (IC50) was 1890 nM.

Consider `CC1(C)CC(=O)c2c([nH]c(-c3ccnc(C#N)c3)c2Nc2ccccc2)C1` [Example 46, 4-[6,6-dimethyl-4-oxo-3-(phenylamino)-4,5,6,7-tetrahydro-1H-indol-2-yl]pyridine-2-carbonitrile], for which the IC50 was 29.1 nM.

Take `CC(O)c1cccc(Nc2c(-c3ccncc3)[nH]c3c2C(=O)CC(C)(C)C3)c1` (stereo not shown) [Example 112, 3-{[3-(1-hydroxyethyl)phenyl]amino}-6,6-dimethyl-2-(pyridin-4-yl)-1,5,6,7-tetrahydro-4H-indol-4-one]: the IC50 stood at 3480 nM.

As for `CC1(C)CC(=O)c2c([nH]c(-c3ccncc3)c2Nc2ccc(F)cc2)C1` [Example 11, 3-[(4-fluorophenyl)amino]-6,6-dimethyl-2-(pyridin-4-yl)-1,5,6,7-tetrahydro-4H-indol-4-one], the half-inhibitory concentration (IC50) worked out at 16.5 nM.

For the compound `CC(C)C1CC(=O)c2c([nH]c(-c3ccncc3)c2Nc2ccccc2)C1` (single isomer, unassigned) [Example 18, 3-(phenylamino)-6-(propan-2-yl)-2-(pyridin-4-yl)-1,5,6,7-tetrahydro-4H-indol-4-one], the half-inhibitory concentration (IC50) came to 5.09 nM.

`Cn1nccc1COCC(=O)Nc1cc(-c2[nH]c3c(c2Nc2ccccc2)C(=O)CCC3)ccn1` [Example 351, 2-[(1-methyl-1H-pyrazol-5-yl)methoxy]-N-{4-[4-oxo-3-(phenylamino)-4,5,6,7-tetrahydro-1H-indol-2-yl]pyridin-2-yl}acetamide]: the IC50 was 6.22 nM.

Consider `CC(C)C(=O)Nc1cccc(Nc2c(-c3ccncc3)[nH]c3c2C(=O)CC(C)(C)C3)c1` [Example 97, N-(3-{[6,6-dimethyl-4-oxo-2-(pyridin-4-yl)-4,5,6,7-tetrahydro-1H-indol-3-yl]amino}phenyl)-2-methylpropanamide], for which the IC50 was 2980 nM.

With `Cc1ccc(CO)c(Nc2c(-c3ccncc3)[nH]c3c2C(=O)CC(C)(C)C3)c1` [Example 481, 3-{[2-(hydroxymethyl)-5-methylphenyl]amino}-6,6-dimethyl-2-(pyridin-4-yl)-1,5,6,7-tetrahydro-4H-indol-4-one], the IC50 was found to be 78.6 nM.
